Values of other authors as cited in US10045948B2, “Pramipexole-containing transdermal patch for treatment of neurodegenerative disease” (MEDRX CO., LTD., priority 2014, dated 2018).

Details: in vivo

For rotigotine, the “Patients with rash and other types of inflammation at the application site” value is listed as 40-50%.
